Test results from USRE38425E1, “Semicarbazones having CNS activity and pharmaceutical preparations containing same” (University of Saskatchewan Technologies, Inc., priority 1995, dated 2004).

Tests used:
mice [1] = experiment: subcutaneous strychnine test; format: in vivo; conditions: dose range of 13.5-108 mg/kg
Text: (§1) Compound 4b was also examined for protective effects after subcutaneous administration of strychnine. […] Two animals per dose were used except in the bicuculline and picrotoxin tests for 4b in which cases, 8 or 16 animals per dose were employed.

rats [2] = experiment: scPTZ screen after intraperitoneal administration to rats; format: in vivo; conditions: for protection in the scPTZ screen, rats protected: intraperitoneal administration to rats
mice [3] = conditions: intraperitoneal injection in mice; time t (h) per compound as in the table
in vivo [4] = conditions: rat, ip
[5] = system: rat livers (liver microsomal system); experiment: effect of chronic oral administration on rat livers; format: in vivo, rats; conditions: 100 mg/kg orally daily for three days; p>0.05
Description: Further bioevaluations of compound 4b were undertaken.
Rats were administered 100 mg/kg of 4b daily for 3 days. The livers were removed, weighed and the effect of 4b on the liver microsomal system were compared to control animals which received only the vehicle (sonicated 0.5% methylcellulose).^21-23

rats [6] = experiment: neurotoxicity screen after oral administration to rats; conditions: oral dosing of rats; 500 mg/kg
Description: (§2) Initially doses of 50 mg/kg of the semicarbazones were administered.

mice [7] = experiment: timed intravenous pentylenetetrazole test; format: in vivo; conditions: for quantity of pentylenetetrazole administered (SE) to clonus / quantity of pentylenetetrazole administered (SE) to first twitch: mice i.p.
Description: The times from the commencement-of the infusion until the appearances of the first twitch and also the onset of clonus were recorded for the test and control animals. […] Ten animals were used as controls and for each dose administered except for the 13 mg/kg dose of 4b in which case 9 animals were employed.

mice [8] = experiment: subcutaneous bicuculline test; format: in vivo
Text: as §1

epileptic chicken = epileptic chicken model (intermittent photic stimulation); format: in vivo; conditions: Gallus gallus; convulsions induced by intermittent photic stimulation
Text: Two series of compounds were examined with the aim of observing whether oxygen or sulfur is a preferable spacer atom between the two aryl rings and also to compare the ED50 figures with those obtained in the rat oral and mouse intraperitoneal screens.

kindled rat = kindled rat test (corneal kindled rat screen); format: in vivo, rats; conditions: Rattus norvegicus; read-out: ED50 (dose required to reduce seizures from stage 5 to stage 3 or less)
Text: Particularly preferred compounds according to the present invention are 4-(4′-fluorophenoxy)benzaldehyde semicarbazone and 4-(thiophenoxy)benzaldehyde semicarbazone. […] Incidentally, the kindled rat screen is described by R. J. Racine in “Modification of Seizure Activity by Electrical Stimulation. II. Motor Seizure”, Electroencephalogr.Clin.Neurophysiol., 1972, 32, 281-294, and by G. Skeen et al. In “Development of Kindled Seizures Following Electrical Stimulation via the Cornea”, Soc.Neurosci., 1990, 16(1), 307; the disclosures of which are incorporated herein by reference.
The kindled rat test was undertaken by reported procedures (as indicated above). Compound 4b was administered orally and the animals challenged with electrical stimuli 2h later. The ED50 is the dose required to reduce seizures from stage 5 to stage 3 or less and these stages are described as follows namely stage 1 is mouth and facial clonus, stage 2 is stage 1 plus head nodding, stage 3 is stage 2 plus forelimb clonus, stage 4 is stage 3 plus rearing and stage 5 is stage 4 plus repeated rearing and falling.

in vivo [9] = conditions: rat, po
Description: as §2

mice [10] = experiment: subcutaneous picrotoxin test; format: in vivo
Text: as §1

mice [11] = experiment: MES screen after intraperitoneal injection in mice; format: in vivo; conditions: time t (h) per compound as in the table
rats [12] = experiment: MES screen after intraperitoneal injection into rats; format: in vivo; conditions: Rattus norvegicus, ip, 4 h
rats [13] = conditions: oral administration to rats; examined ¼-24 h; data taken from reference 1; cited from earlier work
rats [14] = experiment: MES screen after oral administration to rats
Description: The majority of the compounds were examined for oral activity in rats. Initially doses of 50 mg/kg of the semicarbazones were administered.
Evaluation of most of the semicarbazones and analogs in the MES and neurotoxicity tests after oral administration to rats was performed.

rats [15] = conditions: rat, in vivo, ip
in vivo [16] = conditions: mouse, ip
[17] = TD50 dose (4b 108 mg/kg, 5g 95 mg/kg)
[18] = approximate MES ED50 dose (4b 13 mg/kg, 5g 15 mg/kg)
[19] = various doses (5g 12-96 mg/kg), given 1 h (4b) or 0.5 h (5g) before
[20] = oral administration to rats, dose 50 mg/kg, 0.25 h
[21] = oral administration to rats, dose 50 mg/kg, 0.5 h
[22] = oral administration to rats, dose 50 mg/kg, 1 h
[23] = oral administration to rats, dose 50 mg/kg, 2 h
[24] = oral administration to rats, dose 50 mg/kg, 4 h

Q: What does the source list for NC(=O)NN=Cc1ccc(Oc2ccc(F)cc2)cc1 [Compound 4b, 4-(4′-fluorophenoxy)benzaldehyde semicarbazone]?
A: protection in the subcutaneous strychnine test (mice [1]): no protection; protection in the scPTZ screen, rats protected (rats [2]; 125 mg/kg): 0/2; protection in the scPTZ screen, rats protected (rats [2]; 250 mg/kg): 1/10; protection in the scPTZ screen (rats [2]; rats, dose of 125 mg/kg): did not afford protection; rats protected in the scPTZ screen (rats [2]; rats, dose of 250 mg/kg): 10%; acPTZ screen ED50 (mice [3]): >54 mg/kg; TD50 at 4 h (in vivo [4]): 80.1 mg/kg; differences between livers from treated and control rats (liver weights, microsomal protein yields, hepatic enzyme activities) [5]: No differences; neurotoxicity at the maximum dose utilized (rats [6]): absence of neurotoxicity; quantity of pentylenetetrazole administered (SE) to clonus (mice [7]; [17]): 42.1(1.4) mg/kg; quantity of pentylenetetrazole administered (SE) to first twitch (mice [7]; [17]): 32.6(0.8) mg/kg; quantity of pentylenetetrazole administered (SE) to clonus (mice [7]; [18]): 37.6(1.5) mg/kg; quantity of pentylenetetrazole administered (SE) to first twitch (mice [7]; [18]): 32.3(1.4) mg/kg; effect on time to clonus (mice [7]; mice, dose of 108 mg/kg): increased the time to clonus; proconvulsant properties (mice [7]; mice, intraperitoneal doses = MES ED50 and TD50 figures, pentylenetetrazole infused after 1 h): Neither compound possessed this undesirable feature; number of animals protected in the subcutaneous bicuculline test (mice [8]; 54 mg/kg): 0/8; number of animals protected in the subcutaneous bicuculline test (mice [8]; 108 mg/kg): 3/8; number of animals protected in the subcutaneous bicuculline test (mice [8]; 216 mg/kg): 3/8; protection against convulsions induced by subcutaneous bicuculline (mice [8]; [19]): partial protection; ED50 (epileptic chicken): 1.5 mg/kg; ED50 (kindled rat): 3.93 mg/kg; TD50 (in vivo [9]): > 500 mg/kg; protection in the subcutaneous picrotoxin test (animals protected) (mice [10]; 27 mg/kg): 1/8; protection in the subcutaneous picrotoxin test (animals protected) (mice [10]; 108 mg/kg): 5/16; protection in the subcutaneous picrotoxin test (animals protected) (mice [10]; 216 mg/kg): 2/8; protection against convulsions induced by subcutaneous picrotoxin (mice [10]; [19]): partial protection; ED50 (mice [11]; Mus musculus, ip, read-out: MES screen ED50 (mg/kg), intraperitoneal injection in mice): 15 to 25 mg/kg; MES screen ED50 (mice [11]; intraperitoneal injection in mice): 12.86 mg/kg; ED50 (rats [12]): 2.37 mg/kg; neurotoxicity screen TD50 (rats [13]): >500 mg/kg; ED50 (rats [14]; Rattus norvegicus, po, read-out: MES screen ED50 (mg/kg), oral administration to rats, time t (h) per compound as in the table): 1.59 mg/kg; MES screen 0.25 h: number of rats out of 4 which were protected (rats [14]; [20]): 2; MES screen: number of rats out of 4 which were protected (rats [14]; [20]): 2; MES screen 0.5 h: number of rats out of 4 which were protected (rats [14]; [21]): 4; MES screen: number of rats out of 4 which were protected (rats [14]; [21]): 4; MES screen 1 h: number of rats out of 4 which were protected (rats [14]; [22]): 4; MES screen: number of rats out of 4 which were protected (rats [14]; [22]): 4; MES screen 2 h: number of rats out of 4 which were protected (rats [14]; [23]): 4; MES screen: number of rats out of 4 which were protected (rats [14]; [23]): 4; MES screen 4 h: number of rats out of 4 which were protected (rats [14]; [24]): 4; MES screen: number of rats out of 4 which were protected (rats [14]; [24]): 4; slope (SE) of the TD50 (rats [15]): 17.02(6.41); TD50 (in vivo [16]): 108 mg/kg
